Reference: ChEMBL document CHEMBL3085716, “Hytramycins V and I, anti-Mycobacterium tuberculosis hexapeptides from a Streptomyces hygroscopicus strain” (J Nat Prod, 2013)
In brackets after ≈: the same amount, converted by molar mass.

Tests used:
[1] = test system: Mycobacterium tuberculosis; assay: Ratio of MIC for Mycobacterium tuberculosis H37Rv under normoxic condition in presence of 10% fetal bovine serum to MIC for Mycobacterium tuberculosis H37Rv under normoxic condition in absence of 10% fetal bovine serum by MABA assay; format: functional
[2] = test system: Mycobacterium tuberculosis; assay: Ratio of MIC for Mycobacterium tuberculosis H37Rv under normoxic condition in presence of 4% bovine serum albumin to MIC for Mycobacterium tuberculosis H37Rv under normoxic condition in absence of 4% bovine serum albumin by MABA assay; format: functional
[3] = test system: Mycobacterium tuberculosis; assay: Antimycobacterial activity against Mycobacterium tuberculosis H37Rv under normoxic condition after 7 days by MABA assay in presence of 10% fetal bovine serum; format: functional; conditions: 168 h
[4] = test system: Mycobacterium tuberculosis; assay: Antimycobacterial activity against Mycobacterium tuberculosis H37Rv under normoxic condition after 7 days by MABA assay in presence of 4% bovine serum albumin; format: functional; conditions: 168 h
Streptococcus pneumoniae = assay: Antibacterial activity against Streptococcus pneumoniae ATCC 49619 after 20 hrs; format: functional; conditions: ATCC 49619, 20 h
Pseudomonas aeruginosa [5] = assay: Antibacterial activity against Pseudomonas aeruginosa ATCC 27853 at 10 ug/ml after 16 hrs; format: functional; conditions: ATCC 27853, 16 h
Pseudomonas aeruginosa [6] = assay: Antibacterial activity against Pseudomonas aeruginosa ATCC 27853 after 16 hrs; format: functional; conditions: ATCC 27853, 16 h
Enterococcus faecalis [7] = assay: Antibacterial activity against Enterococcus faecalis ATCC 29212 after 16 hrs; format: functional; conditions: ATCC 29212, 16 h
Candida albicans [8] = assay: Antifungal activity against Candida albicans ATCC 10231 at 10 ug/ml after 48 hrs; format: functional; conditions: ATCC 10231, 48 h
Candida albicans [9] = assay: Antifungal activity against Candida albicans ATCC 10231 after 48 hrs; format: functional; conditions: ATCC 10231, 48 h
Staphylococcus aureus [10] = assay: Antibacterial activity against Staphylococcus aureus ATCC 29213 at 10 ug/ml after 16 hrs; format: functional; conditions: ATCC 29213, 16 h
Staphylococcus aureus [11] = assay: Antibacterial activity against Staphylococcus aureus ATCC 29213 after 16 hrs; format: functional; conditions: ATCC 29213, 16 h
Escherichia coli [12] = assay: Antibacterial activity against Escherichia coli ATCC 25922 at 10 ug/ml after 16 hrs; format: functional; conditions: ATCC 25922, 16 h
Escherichia coli [13] = assay: Antibacterial activity against Escherichia coli ATCC 25922 after 16 hrs; format: functional; conditions: ATCC 25922, 16 h
Acinetobacter baumannii [14] = assay: Antibacterial activity against Acinetobacter baumannii ATCC BAA-747 at 10 ug/ml after 16 hrs; format: functional; conditions: ATCC BAA-747, 16 h
Acinetobacter baumannii [15] = assay: Antibacterial activity against Acinetobacter baumannii ATCC BAA-747 after 16 hrs; format: functional; conditions: ATCC BAA-747, 16 h
[16] = test system: Mycolicibacterium smegmatis; assay: Antimycobacterial activity against Mycobacterium smegmatis ATCC 700084 under normoxic condition after 72 hrs by MABA assay; format: functional; conditions: ATCC 700084, 72 h
[17] = test system: Mycobacterium tuberculosis; assay: Antimycobacterial activity against Mycobacterium tuberculosis clinical isolate X005319 under normoxic condition after 7 days by MABA assay; format: functional; conditions: clinical isolate X005319, 168 h
[18] = test system: Mycobacterium tuberculosis; assay: Antimycobacterial activity against Mycobacterium tuberculosis clinical isolate X005282 under normoxic condition after 7 days by MABA assay; format: functional; conditions: clinical isolate X005282, 168 h
[19] = test system: Mycobacterium tuberculosis; assay: Antimycobacterial activity against Mycobacterium tuberculosis clinical isolate X004439 under normoxic condition after 7 days by MABA assay; format: functional; conditions: clinical isolate X004439, 168 h
[20] = test system: Mycobacterium tuberculosis; assay: Antimycobacterial activity against Mycobacterium tuberculosis clinical isolate X004244 under normoxic condition after 7 days by MABA assay; format: functional; conditions: clinical isolate X004244, 168 h
[21] = test system: Mycobacterium tuberculosis; assay: Antimycobacterial activity against Mycobacterium tuberculosis clinical isolate X003899 under normoxic condition after 7 days by MABA assay; format: functional; conditions: clinical isolate X003899, 168 h
[22] = test system: Mycobacterium tuberculosis; assay: Antimycobacterial activity against Mycobacterium tuberculosis clinical isolate X001354 under normoxic condition after 7 days by MABA assay; format: functional; conditions: clinical isolate X001354, 168 h
Vero = assay: Cytotoxicity against african green monkey Vero cells; format: cell-based; conditions: Chlorocebus sabaeus
[23] = test system: Mycobacterium tuberculosis; assay: Antimycobacterial activity against Mycobacterium tuberculosis H37Rv under normoxic condition after 7 days by MABA assay; format: functional
[24] = test system: Streptomyces lavendofoliae; assay: Antibacterial activity against Streptomyces lavendofoliae after 16 hrs; format: functional
Enterococcus faecalis [25] = assay: Antibacterial activity against Enterococcus faecalis ATCC 29212 at 10 ug/ml after 16 hrs; format: functional; conditions: ATCC 29212, 16 h
[26] = Mycobacterium tuberculosis, H37Rv, 168 h

Structure (SMILES): CC(C)C[C@@H]1NC(=O)[C@H]2CCCNN2C(=O)[C@H](C)N(C)C(=O)[C@H]2CCCNN2C(=O)[C@@H]2CCCNN2C(=O)[C@@H](C(C)C)NC1=O
- Ratio [1]: 2
- Ratio [2]: 2
- MIC90 [3]: 29.2 µg/mL
- MIC90 [4]: 24.1 µg/mL
- MIC90 (Streptococcus pneumoniae): 8.4 µg/mL (≈ 13.3 µM)
- inhibition at 10 µg/mL (Pseudomonas aeruginosa [5]): 7%
- MIC90 (Pseudomonas aeruginosa [6]): > 10 µg/mL
- MIC90 (Enterococcus faecalis [7]): 8 µg/mL (≈ 12.6 µM)
- inhibition at 10 µg/mL (Candida albicans [8]): 17%
- MIC90 (Candida albicans [9]): > 10 µg/mL
- inhibition at 10 µg/mL (Staphylococcus aureus [10]): 86%
- MIC90 (Staphylococcus aureus [11]): > 10 µg/mL
- inhibition at 10 µg/mL (Escherichia coli [12]): 17%
- MIC90 (Escherichia coli [13]): > 10 µg/mL
- inhibition at 10 µg/mL (Acinetobacter baumannii [14]): 37%
- MIC90 (Acinetobacter baumannii [15]): > 10 µg/mL
- MIC90 [16]: > 10 µg/mL
- MIC90 [17]: 19.2 µg/mL (≈ 30.3 µM)
- MIC90 [18]: 9.6 µg/mL (≈ 15.1 µM)
- MIC90 [19]: 9.3 µg/mL (≈ 14.7 µM)
- MIC90 [20]: 16.9 µg/mL (≈ 26.7 µM)
- MIC90 [21]: 22.9 µg/mL (≈ 36.1 µM)
- MIC90 [22]: 9.7 µg/mL (≈ 15.3 µM)
- IC50 (Vero): 24.2 µg/mL (≈ 38.2 µM)
- MBC90 [23]: >50 µg/mL
- MIC90 [23, 26]: 11.3 µg/mL (≈ 17.8 µM)

Structure (SMILES): CC[C@H](C)[C@H]1NC(=O)[C@H](CC(C)C)NC(=O)[C@H]2CCCNN2C(=O)[C@H](C)N(C)C(=O)[C@H]2CCCNN2C(=O)[C@@H]2CCCNN2C1=O
- Ratio [1]: 2
- Ratio [2]: 2
- MIC90 [3]: 9.4 µg/mL
- MIC90 [4]: 11.9 µg/mL
- MIC90 (Streptococcus pneumoniae): 2.4 µg/mL (≈ 3.7 µM)
- inhibition at 10 µg/mL (Pseudomonas aeruginosa [5]): 10%
- MIC90 (Pseudomonas aeruginosa [6]): > 10 µg/mL
- MIC90 (Enterococcus faecalis [7]): 3.5 µg/mL (≈ 5.4 µM)
- inhibition at 10 µg/mL (Candida albicans [8]): 0%
- MIC90 (Candida albicans [9]): > 10 µg/mL
- MIC90 (Staphylococcus aureus [11]): 4.5 µg/mL (≈ 6.95 µM)
- inhibition at 10 µg/mL (Escherichia coli [12]): 2%
- MIC90 (Escherichia coli [13]): > 10 µg/mL
- inhibition at 10 µg/mL (Acinetobacter baumannii [14]): 77%
- MIC90 (Acinetobacter baumannii [15]): > 10 µg/mL
- MIC90 [16]: > 10 µg/mL
- MIC90 [17]: 4.8 µg/mL (≈ 7.41 µM)
- MIC90 [18]: 4.7 µg/mL (≈ 7.26 µM)
- MIC90 [19]: 4.4 µg/mL (≈ 6.79 µM)
- MIC90 [20]: 4.7 µg/mL (≈ 7.26 µM)
- MIC90 [21]: 4.8 µg/mL (≈ 7.41 µM)
- MIC90 [22]: 4.7 µg/mL (≈ 7.26 µM)
- IC50 (Vero): 7.7 µg/mL (≈ 11.9 µM)
- MBC90 [23]: 44.2 µg/mL (≈ 68.2 µM)
- MIC90 [23, 26]: 6 µg/mL (≈ 9.26 µM)

Structure (SMILES): CC(C)[C@H]1NC(=O)[C@@H]2C[C@@]3(O)c4ccc(Cl)cc4N[C@H]3N2C(=O)[C@H]2CCCNN2C(=O)[C@H](C)N(C)C(=O)[C@H]2CCCNN2C(=O)[C@@H]2CCCNN2C1=O
- MIC [23, 26]: 18.6 µg/mL (≈ 24.6 µM)

Structure (SMILES): C=C1NC(CC(C)C)C(=O)N[C@H](C(C)C)C(=O)N2NCCCC2C(=O)CC(CC(C)C)C(=O)N2NCCCC2C(=O)OC(C)[C@H]1NC(=O)[C@@H](NC=O)[C@@H](C)CC (some centres undefined)
- MIC [24]: 3.12 µg/mL (≈ 3.95 µM)

Structure (SMILES): NCC[C@H](O)C(=O)N[C@@H]1C[C@H](N)[C@@H](O[C@H]2O[C@H](CN)[C@@H](O)[C@H](O)[C@H]2O)[C@H](O)[C@H]1O[C@H]1O[C@H](CO)[C@@H](O)[C@H](N)[C@H]1O [AMIKACIN]
- MIC90 (Pseudomonas aeruginosa [6]): 1.8 µg/mL (≈ 3.07 µM)

Structure (SMILES): C[C@@H]1[C@H](O)[C@@H](C)/C=C/C=C/C=C/C=C/C=C/C=C/C=C/[C@H](O[C@@H]2O[C@H](C)[C@@H](O)[C@H](N)[C@@H]2O)C[C@@H]2O[C@](O)(C[C@@H](O)C[C@@H](O)[C@H](O)CC[C@@H](O)C[C@@H](O)CC(=O)O[C@H]1C)C[C@H](O)[C@H]2C(=O)O [AMPHOTERICIN B]
- MIC90 (Candida albicans [9]): 0.4 µg/mL (≈ 0.433 µM)

Structure (SMILES): CC1(C)S[C@@H]2[C@H](NC(=O)[C@H](N)c3ccccc3)C(=O)N2[C@H]1C(=O)O [AMPICILLIN]
- inhibition at 10 µg/mL (Enterococcus faecalis [25]): 66%
- MIC90 (Enterococcus faecalis [7]): > 10 µg/mL
- MIC90 (Staphylococcus aureus [11]): 1.2 µg/mL (≈ 3.43 µM)
- MIC90 (Escherichia coli [13]): 8.9 µg/mL (≈ 25.5 µM)

Structure (SMILES): O=C(O)c1cn(C2CC2)c2cc(N3CCNCC3)c(F)cc2c1=O [CIPROFLOXACIN]
- MIC90 (Pseudomonas aeruginosa [6]): 0.2 µg/mL (≈ 0.604 µM)
- MIC90 (Enterococcus faecalis [7]): 4.9 µg/mL (≈ 14.8 µM)

Structure (SMILES): CC(C)/N=c1\cc2n(-c3ccc(Cl)cc3)c3ccccc3nc-2cc1Nc1ccc(Cl)cc1 [CLOFAZIMINE]
- MIC90 [16]: 1.1 µg/mL (≈ 2.32 µM)

Structure (SMILES): CN(C)[C@@H]1C(O)=C(C(N)=O)C(=O)[C@@]2(O)C(O)=C3C(=O)c4c(O)ccc(Cl)c4[C@@H](O)[C@H]3C[C@@H]12 [DEMECLOCYCLINE]
- MIC90 (Acinetobacter baumannii [15]): 0.1 µg/mL (≈ 0.215 µM)

Structure (SMILES): C[C@H]1c2cccc(O)c2C(=O)C2=C(O)[C@]3(O)C(=O)C(C(N)=O)=C(O)[C@@H](N(C)C)[C@@H]3[C@@H](O)[C@@H]21.O [DOXYCYCLINE]
- MIC90 (Acinetobacter baumannii [15]): 0.1 µg/mL
